In patent US20190358176A1, “METHODS OF SENSITIZING CANCER CELLS TO IMMUNE CELL KILLING” (University of Pittsburgh - of the Commonwealth System of …, priority 2017, published 2019):
pIC50: −log10 of the molar value. Where two headings read alike, the source gives them in different places.

Tests used:
MDA-MB-231 cells [1] = assay: Colony formation in three dimensional matrigel culture; format: cell-based, human
Description: MDA-MB-231 cells (2000/well) transduced with a biosensor consisting of EGFP with a mitochondrial targeting sequence derived from cytochrome-C oxidase subunit VIII (52) were trypsinized, resuspended in RPMI1640 containing 2% FBS and 2% matrigel, and seeded in 384 well microplates on a 15 μl cushion of undiluted matrigel. After 24 hours, cells were treated with various concentrations of BCI-215 or vehicle (0.2% DMSO). After two days, drug was washed out and cells allowed to expand for an additional three to five days. At the end of the study, medium was replaced with HBSS containing 4 μg/ml PI for 1 hour, and plates scanned live on an ImageXpress Ultra HCS reader, acquiring z-stacks (4× objective, 20 planes, 50 μm) in the green and red channels. Cell numbers were quantified from maximum projection images using the Multiwavelength Cell Scoring application.

zebrafish embryos = assay: ROS generation in zebrafish embryos (DHE); format: in vivo; conditions: developing zebrafish embryos, 48 hpf
Description: All procedures involving zebrafish were reviewed and approved by the University of Pittsburgh Institutional Animal Care and Use Committee. Wildtype AB* embryos were kept in E3 medium (5 mM NaCl, 0.17 mM KCl, 0.33 mM CaCl2, 0.33 mM MgSO4). At 48 hours post fertilization (hpf), embryos were arrayed into the wells of a 96 well microplate and treated with vehicle (0.5% DMSO) or test agents. After a 30-min pre-incubation, embryos were labeled with a solution of 10 μM DHE and 40 μg/mL MS222 (tricaine methanesulfonate, Sigma) in E3 to restrict movement during imaging. Six hours after DHE loading, embryos were imaged on an ArrayScan II using a 2.5× objective. Images were analyzed for oxyethidium fluorescence with the TargetActivation Bioapplication using the MEAN_ObjectAvgIntenCh1 parameter.

MDA-MB-231 cells [2] = assay: HCA of apoptosis and ERK phosphorylation (multiparametric: nuclear condensation, caspase-3 cleavage, ERK phosphorylation); format: cell-based, human; conditions: for pIC50: Homo sapiens, 24 hours
Description: MDA-MB-231 cells (10,000/well) were treated with identical concentration gradients of test agents on the right and left half of a 384 well microplate for later assessment of potential compound autofluorescence. After 24 hours, cells were fixed, permeabilized with 0.2% Triton X-100, blocked with 1% BSA/PBS, and immunostained with anti-phospho-ERK (E10, CST cat#9106L)/AlexaFluor488 and anti-cleaved caspase-3 (CST cat#9664L)/AlexaFluor594 primary/secondary antibody pairs. Plates were imaged on the ArrayScan II using a 10×0.5NA objective. Each well was background corrected by subtracting mean phospho-ERK and cleaved caspase-3 intensities from wells that had received secondary antibody only. Data in Table 1 are the averages of the indicated numbers of independent experiments, each performed in quadruplicate. IC50, standard error, and 95% confidence intervals were calculated by […] in GraphPad Prism.
Multiple data points were analyzed in GraphPad Prism by one-way ANOVA using Dunnett's multiple comparison test. EC50/IC50 values were obtained from at least three independent experiments by non-linear regression using a four parameter logistic equation. IC50, standard error, and 95% confidence intervals were calculated in GraphPad.

rat hepatocytes = assay: ROS generation in hepatocytes (DHE staining); format: cell-based
Description: Cells were cultured as above and labeled four hours following drug addition with 4 μM DHE for 2 hours. Hoechst 33342 was added to a 4 μg/ml final concentration during the final hour of incubation. In the presence of ROS, DHE is oxidized to a red fluorescent dye (oxyethidium). Cells were imaged as above and the percentage of oxyethidium-nuclear positive cells calculated based on a threshold set with vehicle treated cells.

O=C1/C(=C/c2ccccc2)C(NC2CCCCC2)c2cc(Br)ccc21 (centres unmarked) [BCI-215]
cell lysis (PI positivity) (MDA-MB-231 cells [1]; longer-term 3D matrigel assay): pronounced cell lysis | colony formation (MDA-MB-231 cells [1]; matrigel-on-top model, two days of exposure then washout): inhibited colony formation | generation of ROS in zebrafish embryos (DHE) (zebrafish embryos): does not Generate Reactive Oxygen Species | nuclear morphology (MDA-MB-231 cells [2]; BCI and BCI-215 at 22 μM): shrunken, condensed nuclei that resembled pyknosis | pIC50 (MDA-MB-231 cells [2]; induction of phospho-ERK, read-out: IC50 ERK phosphorylation): 4.81 | pIC50 (MDA-MB-231 cells [2]; read-out: IC50 Caspase-3 cleavage): 5.13 | pIC50 (MDA-MB-231 cells [2]; read-out: IC50 Nuclear condensation): 4.89 | generation of ROS in hepatocytes (DHE) (rat hepatocytes): does not Generate Reactive Oxygen Species
